Measured values: publication PMC5981617, “Targeted Delivery of Cell Penetrating Peptide Virus-like Nanoparticles to Skin Cancer Cells” (Scientific Reports, 2018)
Where a name gives a salt, the structure may show the parent alone. No end group written: not given here. *: point of attachment. FITC = O=C1OC2(c3ccc(O)cc3Oc3cc(O)ccc32)c2ccc(NC(=S)*)cc21

Tests used:
Format in all cases: cell-based, human
[1] = test system: A431 cells; test: Endocytosis inhibitory assay (entry of FITC-peptide, fluorescence microscopy); conditions: 30 min pre-treatment, then FITC-NRPDSAQFWLHH 0.25 mM, 16 h, 37 °C; CPZ 6 µg/mL, MβCD 1.5 mM, Cyt D 10 µg/mL, genistein 200 µM
Experimental: Four endocytosis inhibitors [Cyt D (10 µg/mL; Calbiochem, San Diego, California, USA), CPZ (6 µg/mL; Santa Cruz Biotechnology, Dallas, Texas, USA), MβCD (1.5 mM; Sigma Aldrich, St. Louis, Missouri, USA) and genistein (200 µM; Calbiochem, San Diego, California, USA)] were used to study the energy-dependent endocytosis of peptide […] into A431 cells. The cells (200,000 cells/well) were seeded onto sterile glass coverslips which had been placed in a six-well plate, and incubated at 37 °C for overnight. The medium was then removed and the cells were pretreated with the inhibitors at 37 °C for 30 min. After the pretreatment with inhibitors, FITC-[…] (0.25 mM) was added to the cells and incubated for 16 h at 37 °C in the presence of inhibitors. After removing the medium, the cells were washed, fixed and stained with Hoechst 33342. The cells were mounted onto a glass slide and examined under a fluorescence microscope.

[2] = test system: A431 cells; test: MTT assay, cell viability in the presence of endocytosis inhibitors; conditions: Cyt D 10 µg/mL, genistein 200 µM, CPZ 6 µg/mL, MβCD 1.5 mM, n = 3
[3] = test system: A431 cells; test: Internalisation of FITC-labelled peptide, fluorescence microscopy; conditions: 0.25 mM, 37 °C, 16 h
Experimental: (§1) The selective internalisation property of peptide […] was tested on NHDF and A431 cells. These cells (200,000 cells/well) were seeded separately onto sterile glass coverslips which had been placed in a six-well plate, and incubated overnight at 37 °C. After changing the medium, the cells were added with FITC-conjugated peptide (FITC-[…]; 0.25 mM; Mimotopes Pty Ltd, Clayton, Victoria, Australia), and incubated for 16 h at 37 °C. The cells were then washed 3 times with PBS and fixed with paraformaldehyde [3.7% (w/v)]. Hoechst 33342 was added and incubated for 10 min to stain the cell nuclei. The cells were mounted onto a glass slide and observed under a fluorescence microscope.
(§2) A431 and HT29 cell lines (200,000 cells/well) were seeded onto sterile glass coverslips in a six-well plate and incubated overnight at 37 °C. After changing the medium, peptide FITC-[…] (0.25 mM) was added to the cell lines and incubated at 37 °C for 16 h in a CO2 incubator. The cells were then washed, fixed, stained with Hoechst 33342, and viewed under a fluorescence microscope. The amount of phage internalised into A431 and HT29 cells (1 × 10^6 cells) which had been incubated with the purified phage (1 × 10^12 pfu) at 37 °C for 12 h was measured with the phage titration assay as described above.

[4] = test system: NHDF cells; test: as above; conditions: 0.25 mM, 37 °C, 16 h
Experimental: as §1

[5] = test system: HT29 cells; test: Internalisation of FITC-labelled peptide in cell line with lower EGFr expression; conditions: 0.25 mM, 37 °C, 16 h; HT29 9 × 10^3 EGFr/cell; fluorescence microscopy
Experimental: as §2

Compound: CN(C)CCCN1c2ccccc2Sc2ccc(Cl)cc21 [CPZ, chlorpromazine hydrochloride]
- Effect of endocytosis inhibitor on internalisation of peptide NRPDSAQFWLHH (green granular appearance) [1]: reduced drastically
- Viability of A431 cells in the presence of inhibitor [2]: over 83%

Compound: C=C1[C@@H](C)[C@H]2[C@H](Cc3ccccc3)NC(=O)[C@]23[C@H](OC(C)=O)/C=C/[C@@](C)(O)C(=O)[C@@H](C)C/C=C/[C@H]3[C@@H]1O [Cyt D, cytochalasin D]
- Effect of endocytosis inhibitor on internalisation of peptide NRPDSAQFWLHH (green granular appearance) [1]: did not inhibit internalisation
- Viability of A431 cells in the presence of inhibitor [2]: over 83%

Compound: O=c1c(-c2ccc(O)cc2)coc2cc(O)cc(O)c12 [genistein]
- Effect of endocytosis inhibitor on internalisation of peptide NRPDSAQFWLHH (green granular appearance) [1]: did not inhibit internalisation
- Viability of A431 cells in the presence of inhibitor [2]: over 83%

Compound: methyl-β-cyclodextrin [MβCD]
- Effect of endocytosis inhibitor on internalisation of peptide NRPDSAQFWLHH (green granular appearance) [1]: reduced drastically
- Viability of A431 cells in the presence of inhibitor [2]: over 83%

Compound: {FITC}-NRPDSAQFWLHH
- Internalisation of FITC-labelled peptide into A431 cells [3]: taken up efficiently
- Internalisation of FITC-labelled peptide into NHDF cells [4]: no significant fluorescent signal was observed
- Internalisation of FITC-labelled peptide into HT29 cells [5]: no significant green fluorescent granules were observed
